# US5703113A, “Benzopyran derivatives” (priority 1992, dated 1997)
# Experiments:
# [1] = system: potassium canal (isolated arteria mesenterica anterior); test: Potassium canal binding ("bandage") and selectivity on isolated arteria mesenterica anterior of rabbits; conditions: isolated rabbit mesenteric artery; KCl vs adrenaline contraction, TEA medium
# Experimental: 1. […] Rabbits of both sexes weighing 2000-2500 g were anesthetized by a hit at the nape, the abdominal wall was cut open and the arteria mesenterica anterior was mounted after exsanguination. The artery was put into a Krebs solution of a temperature of 37° C. infiltrated with carbogene while removing the interstitial residues. Then a 2 mm wide spiral is cut from the artery and this artery stripe is prestretched in an organ pot in Krebs solution of a temperature of 37° C., infiltrated with carbogene, by a stretching of 0.5 g. In the experiment Hugo Basile type dynamometer heads, Hugo Basile type amplifiers and Perkin Elmer type potentiometer have been used for amplifying and fixing the signs. Two parallel organs were used for the qualitative tests. One of them was contracted by adding 30 mmoles of KCl after an incubation time of 1 hour, the other one by 5 μmoles of adrenaline. Then the arteries were relaxed by the cumulative addition of the substance to be examined. The system was washed with a Krebs solution containing 30 mmoles of tetraethyl ammonium bromide (TEA) and the organs were incubated for 30 minutes in a TEA-containing medium. After incubation the organs were again contracted with potassium and noradrenaline and a dilatation was induced by using the substance to be examined. In a quantitative test organs contracted with 5 μmoles of noradrenaline were relaxed with the substance to be examined and the dose inducing a 50% dilatation was determined.
# normotensive rats = test: Decrease of blood pressure on normotensive rats measured by average arterial tension; type: in vivo, Wistar rats; set-up: Pulse: unit not given beside the values; Average arterial tension / Decrease (of average arterial tension): unit not given here
# Experimental: 2. Decrease of blood pressure on normotensive rats measured by average arterial tension
# Wistar rats of both sexes weighing 230-260 g were used in the experiments. The rats were narcotised by 40 mg/kg of pentobarbital. The trachea was mounted and a polyethylene canula was introduced into the trachea, vena jugularis sinester and to the arteria carotis communis sinester. The substances to be examined were introduced into the organism of the animal through the duodenum. The pulsatory, systolic and diastolic blood pressure and the pulse were continuously measured by using a Statham type tensiometer head and haemodynamic measuring system produced by the Hungarian firm Experimetria Kft. After the blood pressure has become stable 0.75 μg of adrenaline were administered intravenously to measure the effect of alpha-adrenergic receptors on the blood pressure. After the hypertension has ceased 0.1 μg/kg of isoproterenole is added in order to characterize the activity of the β-adrenerg receptors. After tachycardia has ceased the test compound was administered i.d. and the treatment with the receptor stimulants was repeated after an hour in order to characterize the effect of the test compound on adrenergic receptor subclasses.
# Change of the blood pressure on normotensive rats measured on six test animals
# [2] = 5 mg/kg i.d., time 0 min (baseline)
# [3] = 10 mg/kg i.d., time 0 min (baseline)
# [4] = 1 mg/kg i.d., time 0 min (baseline)
SMILES,Mechanism of effect [1],Selectivity [1],Average arterial tension (normotensive rats; [4]),Pulse (normotensive rats; [4]),"Average arterial tension (normotensive rats; 1 mg/kg i.d., time 1 min)","Decrease (of average arterial tension) (normotensive rats; 1 mg/kg i.d., time 1 min)","Pulse (normotensive rats; 1 mg/kg i.d., time 1 min)","Average arterial tension (normotensive rats; 1 mg/kg i.d., time 10 min)","Decrease (of average arterial tension) (normotensive rats; 1 mg/kg i.d., time 10 min)","Pulse (normotensive rats; 1 mg/kg i.d., time 10 min)","Average arterial tension (normotensive rats; 1 mg/kg i.d., time 30 min)","Decrease (of average arterial tension) (normotensive rats; 1 mg/kg i.d., time 30 min)","Pulse (normotensive rats; 1 mg/kg i.d., time 30 min)","Average arterial tension (normotensive rats; 1 mg/kg i.d., time 60 min)","Decrease (of average arterial tension) (normotensive rats; 1 mg/kg i.d., time 60 min)","Pulse (normotensive rats; 1 mg/kg i.d., time 60 min)",further results
"COc1cc2c(cc1Cl)[C@@H](N1CCCC1=O)[C@H](O)C(C)(C)O2 (racemic) [Example 10, (+/-)-6-chloro-7-methoxy-3,4-dihydro-2,2-dimethyl-trans-4-(2-oxo-1-pyrrolidinyl)-2H-benzo (b) pyran-3-ol]",Potassium canal activator,selective,–,–,–,–,–,–,–,–,–,–,–,–,–,–,"Average arterial tension (normotensive rats; [2]): 108 ± 15; Pulse (normotensive rats; [2]): 402 ± 4; Average arterial tension (normotensive rats; 5 mg/kg i.d., time 1 min): 62 ± 3; Decrease (of average arterial tension) (normotensive rats; 5 mg/kg i.d., time 1 min): -46; Pulse (normotensive rats; 5 mg/kg i.d., time 1 min): 418 ± 18; Average arterial tension (normotensive rats; 5 mg/kg i.d., time 10 min): 68 ± 6; Decrease (of average arterial tension) (normotensive rats; 5 mg/kg i.d., time 10 min): -40; Pulse (normotensive rats; 5 mg/kg i.d., time 10 min): 436 ± 18; Average arterial tension (normotensive rats; 5 mg/kg i.d., time 30 min): 96 ± 15; Decrease (of average arterial tension) (normotensive rats; 5 mg/kg i.d., time 30 min): -12; Pulse (normotensive rats; 5 mg/kg i.d., time 30 min): 424 ± 10; Average arterial tension (normotensive rats; 5 mg/kg i.d., time 60 min): 109 ± 26; Decrease (of average arterial tension) (normotensive rats; 5 mg/kg i.d., time 60 min): +1; Pulse (normotensive rats; 5 mg/kg i.d., time 60 min): 396 ± 13"
"COc1cc2c(cc1Br)[C@@H](N1CCCC1=O)[C@H](O)C(C)(C)O2 (relative stereo) [Example 9, (+/-) 16-bromo-7-methoxy-3,4-dihydro-2,2-dimethyl-trans-4-(2-oxo-1-pyrrolidinyl)-2H-benzo (b) pyran-3-ol]",Potassium canal activator,selective,–,–,–,–,–,–,–,–,–,–,–,–,–,–,"Average arterial tension (normotensive rats; [3]): 117 ± 19; Pulse (normotensive rats; [3]): 406 ± 51; Average arterial tension (normotensive rats; 10 mg/kg i.d., time 1 min): 119 ± 16; Decrease (of average arterial tension) (normotensive rats; 10 mg/kg i.d., time 1 min): +2; Pulse (normotensive rats; 10 mg/kg i.d., time 1 min): 406 ± 51; Average arterial tension (normotensive rats; 10 mg/kg i.d., time 10 min): 58 ± 5; Decrease (of average arterial tension) (normotensive rats; 10 mg/kg i.d., time 10 min): -59; Pulse (normotensive rats; 10 mg/kg i.d., time 10 min): 436 ± 62; Average arterial tension (normotensive rats; 10 mg/kg i.d., time 30 min): 65 ± 15; Decrease (of average arterial tension) (normotensive rats; 10 mg/kg i.d., time 30 min): -52; Pulse (normotensive rats; 10 mg/kg i.d., time 30 min): 430 ± 63; Average arterial tension (normotensive rats; 10 mg/kg i.d., time 60 min): 87 ± 18; Decrease (of average arterial tension) (normotensive rats; 10 mg/kg i.d., time 60 min): -30; Pulse (normotensive rats; 10 mg/kg i.d., time 60 min): 430 ± 63"
COc1cc2c(cc1[N+](=O)[O-])[C@@H](N1CCCC1=O)[C@H](O)C(C)(C)O2 (relative stereo) [Example 11],Potassium canal activator,selective,121 ± 21,388 ± 10,115 ± 11,-6,373 ± 15,97 ± 23,-24,394 ± 20,105 ± 18,-16,382 ± 18,107 ± 12,-14,382 ± 18,–
"COc1cc2c(cc1C#N)[C@@H](N1CCCC1=O)[C@H](O)C(C)(C)O2 (racemic) [Example 15, (+/-)-6-cyano-7-methoxy-3,4-dihydro-2,2-dimethyl-trans-4-(2-oxo-1-pyrrolidinyl)-2H-benzo (b) pyran-3-ol]",Potassium canal activator,selective,125 ± 13,412 ± 45,92 ± 10,-33,439 ± 42,103 ± 5,-22,430 ± 45,118 ± 15,-7,430 ± 45,122 ± 10,-3,412 ± 37,–
"COc1cc2c(cc1OC)[C@@H](N1CCCC1=O)[C@H](O)C(C)(C)O2 (racemic) [Example 1, (+/-)-6,7-dimethoxy-3,4-dihydro-2,2-dimethyl-trans-4-(2-oxo-1-pyrrolidinyl)-2H-benzo(b)pyran-3-ol]",Potassium canal activator,selective,107 ± 11,394 ± 27,56 ± 6,-51,403 ± 34,56 ± 6,-51,400 ± 31,49 ± 4,-45,400 ± 31,71 ± 20,-36,382 ± 31,–
"CC1(C)Oc2ccc(C#N)cc2C(N2CCCC2=O)C1O (stereo not drawn) [BRL 34915, reference compound]",Potassium canal activator,selective,112 ± 9,368 ± 44,45 ± 2,-67,368 ± 31,45 ± 2,-67,382 ± 25,49 ± 4,-63,377 ± 19,61 ± 11,-51,373 ± 12,–
